In patent publication US12370202B2, “Methods and compositions for inhibiting the NLRP3 inflammasome and/or LON protease” (TRITERPENOID THERAPEUTICS, INC., priority 2019, dated 2025):

Tests used:
NLRP3 inflammasome = NLRP3 inflammasome activation in LPS-primed BMDM, IL-1β ELISA; format: cell-based, mouse; settings: for IL-1β production by NLRP3 inflammasome activation: LPS primed BMDM, different doses (30-1000 nM) 15 min before ATP (5 mM) 45 min, ELISA
Description: FIG. 4A depicts an experimental design and FIG. 4B is a bar graph. Ixazomib (IXZ) potentiation of NLRP3 inflammasome activation inhibited by CDDO-2P-Im. Bone marrow derived macrophages (BMDM) were treated with Ixazomib (IXZ) and LPS (100 ng/ml) for 20 hours. Primed-BMDM were treated with CDDO-2P-Im (100 nM) for 15 min, followed by stimulation of ATP (5 mM) for 45 min. Supernatant were analyzed by ELISA for IL-1β release.
FIG. 6 is a set of bar graphs. CDDO-Im, CDDO-2P-Im (right panel), and CDDO-3P-Im (left panel) inhibit IL-1β production by NLRP3 inflammasome activation. LPS primed-BMDM were treated with different doses of CDDO-Im, CDDO-2P-Im, or CDDO-3P-Im for 15 min before ATP (5 mM) was added for 45 min. Supernatant were analyzed by ELISA for IL-1β.
To explore the potential that CDDO-2P-IM may enhance the MM response to proteasome inhibitors via inhibition of inflammasome activity, the effect of CDDO-2P-IM on activation of the NLRP3 complex (as defined by IL-1β production), in the presence or absence of IXZ in primary mouse bone marrow derived macrophages (BMDM) was evaluated. In the experiment, BMDM were primed by lipopolysaccharide (LPS) in the presence or absence of IXZ for 4 hours, followed by a brief ([…]) exposure to CDDO-2P-IM after which inflammasome activation was triggered by ATP.
(§1) The effects of the pyridyl derivatives of CDDO-IM, (specifically, CDDO-2P-Im and CDDO-3P-Im) on NLRP3 inflammasome activation were tested in mouse BMDMs. Cells were first primed with LPS for 4 hours, then pretreated with specific doses of either CDDO-Im, CDDO-2P-IM or CDDO-3P-Im (30-1000 nM) for 15 min before ATP was added for another 45 min. CDDO-Im and its pyridyl derivatives inhibited the amount of caspase-p10 (an auto-processed fragment of caspase-1) released into cell culture supernatants in a dose-dependent manner as measured by Western blot (FIG. 5). […] The effect on caspase-1 activation is specific for the NLRP3 inflammasome as the AIM2 inflammasome activation by poly(dA:dT) was not inhibited by the synthetic CDDO-Im derivatives (data not shown).

CCL2 = CCL2 expression in LPS-stimulated human macrophages, RT-qPCR; format: cell-based; settings: 16 hours pretreatment, then 10 ng/ml LPS 24 hours
Description: FIG. 10 is a bar graph. CDDO-Me, CDDO-Im, CDDO-2P-Im, and CDDO-3P-Im inhibit expression of CCL2 in human macrophages at picomolar concentrations.
Human peripheral blood monocytes were isolated using CD14 magnetic beads and differentiated with 20 ng/ml M-CSF for with 5 days and pretreated or not with 300 nM CDDO-Me; 500 pM CDDO-Im; 500 pM CDDO-2p-Im; 500 pM CDDO-3p-Im for 16 hours, followed by stimulation with 10 ng/ml LPS for an additional 24 hours. Total RNA was extracted and analyzed by RT-qPCR (Tagman) for cytokine expression.

Caspase 1 = Caspase 1 activation in LPS-primed BMDM, immunoblotting (caspase-p10); format: cell-based, mouse; settings: different doses (30-1000 nM) 15 min before ATP (5 mM) 45 min
Description: FIG. 5 depicts a Western blot. CDDO-Im, CDDO-2P-Im, and CDDO-3P-Im inhibit Caspase 1 activation. LPS primed BMDM were treated with different doses of CDDO-Im, CDDO-2P-Im, or CDDO-3P-Im for 15 min before ATP (5 mM) was added for 45 min. Medium supernatant (SUP) and cell extracts (Lys) were analyzed by immunoblotting.
as §1

NLRP3 = assay: Mono-sodium urate (MSU)-induced peritonitis; format: in vivo, Mice; settings: MSU crystals 1 mg/mouse i.p.; lavage four to sixteen hours later
Description: FIG. 7 is a bar graph. CDDO-Im, CDDO-2P-Im, and CDDO-3P-Im inhibit mono-sodium urate (MSU)-induced peritonitis. Peritoneal cavity IL-1β levels expressed as mean and SEM (n=6).
Mice received intraperitoneal (i.p.) injections of mono-sodium urate (MSU) crystals (1 mg/mouse) in the presence or absence of CDDO-Im, CDDO-2P-Im, or CDDO-3P-Im. Due to its particulate material, MSU crystals are potent activators of the NOD-like receptor NLRP3. Four to sixteen hours later a peritoneal lavage was conducted to collect supernatant from the peritoneal cavity.

RPMI8226 cells = assay: MM cell proliferation (confluence), IncuCyte imaging; format: cell-based, human; settings: 100 nM TTX01 or 7.5 nM IXZ alone, 72 hours
Description: (§2) FIG. 2 is a bar graph. CDDO-2P-Im inhibits proliferation of multiple myeloma cell line in vitro. 5T33MM, RPMI8226, and ARH77 cells were seeded in 96-well plates and incubated with CDDO-2P-Im (50 nM-150 nM). Confluence (cell proliferation) was measured using IncuCyte imaging after 72 hours. *p<0.01 compared to control.
(§3) FIG. 3 is a bar graph. […] Shown here are results for 5T33MM (50 nM TTX01/7.5 nM IXZ); RPMI8226 (100 nM TTX01/7.5 nM IXZ); and ARH77 (150 nM TTX01/10 nM IXZ). Confluence (cell proliferation) was measured using IncuCyte imaging after 72 hours.
(§4) To examine tumor-intrinsic effects of CDDO-2P-IM in the 5T33MM cell line and in human MM cells, conducted a series of in vitro studies was conducted. For these experiments, 96-well plates were first coated in poly-L-ornithine before cells were seeded (in triplicate), including the murine 5T33MM and the human RPMI8226, and ARH77 cell lines (15,000 cells per well). Cells were incubated in IncuCyte™ Live-Cell Analysis System for 72 hours (images were taken every 4 hours). To define dose-dependent effect of CDDO-2P-IM, cells were exposed to concentrations ranging from 50 nM to 150 nM. To examine potential synergy of CDDO-2P-IM with IXZ, MM cells were exposed to IXZ (7 nM-10 nM) either alone or in combination with CDDO-2P-IM.

ARH77 cells = assay: as above; format: cell-based, human; settings: 150 nM TTX01 or 10 nM IXZ alone, 72 hours
Description: as §2, §3, §4

5T33MM cells = assay: as above; format: cell-based, murine; settings: 50 nM TTX01 or 7.5 nM IXZ alone, 72 hours
Description: as §2, §3, §4

OV81 = assay: Ovarian cancer cell growth (confluence), IncuCyte ZOOM; format: cell-based, human; settings: cisplatin dose used in the combination
Source text: (§5) FIG. 11 is a set of line graphs. Cisplatin resistant human ovarian cancer cell lines A2780, CP70, OV81, CP10, OVCAR-5 and OVCAR-8 were exposed to CDDO-2P-Im, cisplatin, or a combination of CDDO-2P-Im and cisplatin.
(§6) CDDO-2P-Im suppresses growth of cisplatin-resistant human ovarian cancer cells in vitro. Cisplatin resistant human ovarian cancer cell lines A2780, CP70, OV81, CP10, OVCAR-5 and OVCAR-8 cell were each cultured in a complete medium consisting of RPMI1640, 20% heat-inactivated FBS, 1% penicillin/streptomycin. Cells were cultured in a water jacketed CO2 incubator at 37° C. in a humidified atmosphere consisting of 5% CO2 and 95% air. Continuous live-cell analysis (CLCA) was used as a non-invasive cell monitoring and measurement method based on time-lapse, phase-contrast microscopy and fluorescence imaging, using IncuCyte® ZOOM. Cells were seeded in 96-well plates at densities of either 1×10^4 or 3×10^4 cell/cm^2 followed by addition of a drug dilution series for either CDDO-2P-Im or Cisplatin (P4394, Sigma) dissolved in PBS and diluted in media. […] Reduction in confluence is accompanied by the detachment and death of ovarian cancer cells.

CP10 = assay: as above; format: cell-based, human; settings: cisplatin dose used in the combination
Source text: as §5, §6

OVCAR-5 = assay: as above; format: cell-based, human; settings: cisplatin dose used in the combination
Source text: as §5, §6

CP70 = assay: as above; format: cell-based, human; settings: cisplatin dose used in the combination
Source text: as §5, §6

OVCAR-8 = assay: as above; format: cell-based, human; settings: cisplatin dose used in the combination
Source text: as §5, §6

A2780 = assay: as above; format: cell-based, human; settings: cisplatin dose used in the combination
Source text: as §5, §6

CC1(C)CC[C@]2(C(=O)n3cnc(-c4cccnc4)c3)CC[C@]3(C)[C@H](C(=O)C=C4[C@@]5(C)C=C(C#N)C(=O)C(C)(C)[C@@H]5CC[C@]43C)[C@@H]2C1 [CDDO-3P-Im, 1-[2-Cyano-3,12-dioxooleana-1,9(11)-dien-28-oyl]-4(-pyridin-3-yl)-1H-imidazole]
inhibit: IL-1β production by NLRP3 inflammasome activation (NLRP3 inflammasome) | expression of CCL2 (CCL2; 500 pM) | Caspase 1 activation (caspase-p10 released into supernatant) (Caspase 1) | MSU-induced peritonitis (peritoneal cavity IL-1β levels) (NLRP3)

CC1(C)CC[C@]2(C(=O)n3ccnc3)CC[C@]3(C)[C@H](C(=O)C=C4[C@@]5(C)C=C(C#N)C(=O)C(C)(C)[C@@H]5CC[C@]43C)[C@@H]2C1 [CDDO-Im, 1-(2-cyano-3,12-dioxooleana-1,9(11)-dien-28-oyl) imidazole, reference compound]
inhibit: IL-1β production by NLRP3 inflammasome activation (NLRP3 inflammasome) | expression of CCL2 (CCL2; 500 pM) | Caspase 1 activation (caspase-p10 released into supernatant) (Caspase 1) | MSU-induced peritonitis (peritoneal cavity IL-1β levels) (NLRP3)

COC(=O)[C@]12CCC(C)(C)C[C@H]1[C@H]1C(=O)C=C3[C@@]4(C)C=C(C#N)C(=O)C(C)(C)[C@@H]4CC[C@@]3(C)[C@]1(C)CC2 [CDDO-Me, reference compound]
inhibit: expression of CCL2 (CCL2; 300 nM)

CC(C)C[C@H](NC(=O)CNC(=O)c1cc(Cl)ccc1Cl)B(O)O [IXZ, reference compound]
only partially effective: proliferation (confluence), agent added alone (RPMI8226 cells) | proliferation (confluence), agent added alone (ARH77 cells) | proliferation (confluence), agent added alone (5T33MM cells)
potentiation: IL-1β release (NLRP3 inflammasome activation), effect of IXZ during LPS priming (NLRP3 inflammasome; BMDM, IXZ and LPS (100 ng/ml), ATP (5 mM) 45 min)

N.N.[Cl][Pt][Cl] [cisplatin, cis-diamminedichloroplatinum(II), reference compound]
absolutely no effect: ovarian cancer cell kill, cisplatin alone (OV81) | ovarian cancer cell kill, cisplatin alone (CP10) | ovarian cancer cell kill, cisplatin alone (OVCAR-5) | ovarian cancer cell kill, cisplatin alone (CP70) | ovarian cancer cell kill, cisplatin alone (OVCAR-8) | ovarian cancer cell kill, cisplatin alone (A2780)
